pIC50: −log10 of the molar value.
How the values were obtained:
[1] = target: 2-acylglycerol O-acyltransferase 1 (human) (UniProt Q96PD6); experiment: Inhibition of human recombinant MGAT1 expressed in insect cell membrane using 2-oleyl-sn-glycerol and [14C]-oleyl-coenzyme A as substrate after 10 to 15 mins by liquid scintillation counting analysis
[2] = target: 2-acylglycerol O-acyltransferase 2 (human) (UniProt Q3SYC2); experiment: Inhibition of human recombinant MGAT2 expressed in insect cell membrane using 2-oleoyl-sn-glycerol and oleoyl coenzyme A as substrate after 40 mins by Ellmans assay based rapidfire LCMS analysis
Sequence of 2-acylglycerol O-acyltransferase 2 (human) (Q3SYC2 whole entry, looked up): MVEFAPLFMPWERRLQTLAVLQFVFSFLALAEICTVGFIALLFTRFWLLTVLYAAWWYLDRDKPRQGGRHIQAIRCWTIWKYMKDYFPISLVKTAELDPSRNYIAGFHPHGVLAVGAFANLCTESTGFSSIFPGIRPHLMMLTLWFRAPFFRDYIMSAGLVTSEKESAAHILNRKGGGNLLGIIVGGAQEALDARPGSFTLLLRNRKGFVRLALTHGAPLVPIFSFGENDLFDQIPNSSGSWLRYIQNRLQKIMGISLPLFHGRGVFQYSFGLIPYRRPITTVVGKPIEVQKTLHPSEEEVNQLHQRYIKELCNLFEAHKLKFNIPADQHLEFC

[3] = target: 2-acylglycerol O-acyltransferase 2 (mouse); experiment: Inhibition of mouse recombinant MGAT2 expressed in insect cell membrane using 2-oleoyl-sn-glycerol and oleoyl coenzyme A as substrate after 40 mins by Ellmans assay based rapidfire LCMS analysis
[4] = Inhibition of human recombinant MGAT3 expressed in insect cell membrane using 2-oleyl-sn-glycerol and [14C]-oleyl-coenzyme A as substrate after 10 to 15 mins by liquid scintillation counting analysis

Sequence of 2-acylglycerol O-acyltransferase 1 (human) (Q96PD6 whole entry, looked up): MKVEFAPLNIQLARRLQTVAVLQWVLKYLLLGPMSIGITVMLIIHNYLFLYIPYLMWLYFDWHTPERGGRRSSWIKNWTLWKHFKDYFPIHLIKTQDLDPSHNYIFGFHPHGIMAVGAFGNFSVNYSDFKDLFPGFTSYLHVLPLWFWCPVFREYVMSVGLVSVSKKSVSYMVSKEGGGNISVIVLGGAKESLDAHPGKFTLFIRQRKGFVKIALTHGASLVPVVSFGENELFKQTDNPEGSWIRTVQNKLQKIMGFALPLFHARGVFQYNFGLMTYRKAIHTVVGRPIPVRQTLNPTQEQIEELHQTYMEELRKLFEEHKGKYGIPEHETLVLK

Row | SMILES | pIC50 [2] | further results
1 | CCC1(C)NC(=O)c2cc(S(=O)(=O)Nc3ccc(OC)cc3)ccc2NC1=O (stereo unspecified) | – | pIC50 [1]: 7.49
2 | CCC1(C)NC(=O)c2cc(S(=O)(=O)Nc3ccccc3)ccc2NC1=O (stereo unspecified) | – | pIC50 [1]: 6.30
3 | CCC1(CC)CNc2ccc(S(=O)(=O)Nc3ccc(F)cc3F)cc2C(=O)N1 | 8.80 | –
4 | CCC1(C)C(=O)Nc2ccc(S(=O)(=O)Nc3ccc(F)cc3F)cc2C(=O)N1C (stereo unspecified) | 5.10 | pIC50 [3]: 6.20
5 | CCC1(C)NC(=O)c2cc(S(=O)(=O)Nc3ccc(Cl)cc3)ccc2N(C)C1=O (stereo unspecified) | – | pIC50 [1]: 6.40
6 | O=C(Nc1ccc(Cl)cc1)c1ccc2c(c1)C(=O)NC1(CCC1)C(=O)N2 | < 4.00 | –
7 | CC1(C)COc2ccc(S(=O)(=O)Nc3ccc(Cl)cc3)cc2C(=O)N1 | 5.70 | –
8 | CCC1(CC)CNc2ccc(S(=O)(=O)Nc3ccc(F)cc3F)cc2CN1 | 6.50 | –
9 | CCC1(CC)NCc2cc(S(=O)(=O)Nc3ccc(F)cc3F)ccc2NC1=O | 6.60 | –
10 | CCC1(CC)NC(=O)c2cc(S(=O)(=O)Nc3ccc(F)cc3F)ccc2NC1=O | 8.49 | –
11 | O=C1NC2(CCCC2)C(=O)Nc2ccc(S(=O)(=O)Nc3ccc(Cl)cc3)cc21 | 7.30 | –
12 | O=C1NC2(CCC2)C(=O)Nc2ccc(S(=O)(=O)Nc3ccc(Cl)cc3)cc21 | 7.10 | –

Continued, in another order:

Row | pIC50 [2] | SMILES | further results
13 | 7.20 | CCC1(C)NC(=O)c2cc(S(=O)(=O)Nc3ccccc3Cl)ccc2NC1=O (stereo unspecified) | pIC50 [1]: 6.80
14 | 7.60 | CCC1(C)NC(=O)c2cc(S(=O)(=O)Nc3ccc(Cl)cc3)ccc2NC1=O (stereo unspecified) | pIC50 [3]: 8.40; pIC50 [4]: 6.40; pIC50 [1]: 7.30
15 | < 4.00 | CCC1(C)NC(=O)c2cc(S(=O)(=O)N(C)c3ccccc3)ccc2NC1=O (stereo unspecified) | –
16 | < 4.00 | CCC1(C)NC(=O)c2cc(NS(=O)(=O)c3ccccc3)ccc2NC1=O (stereo unspecified) | –
17 | 7.30 | CCCC1(C)NC(=O)c2cc(S(=O)(=O)Nc3ccc(F)cc3F)ccc2NC1=O (stereo unspecified) | –
18 | 5.30 | CCC1NC(=O)c2cc(S(=O)(=O)Nc3ccccc3)ccc2NC1=O (stereo unspecified) | –
19 | 5.70 | CCC1(C)NC(=O)c2cc(S(=O)(=O)Nc3cccc(Cl)c3)ccc2NC1=O (stereo unspecified) | –
20 | 5.10 | CCC1(C)NC(=O)c2cc(S(=O)(=O)NCc3ccccc3)ccc2NC1=O (stereo unspecified) | –
21 | 5.30 | CCC1(C)NC(=O)c2cc(S(=O)(=O)NC3CCCCC3)ccc2NC1=O (stereo unspecified) | –

Reference: BindingDB's records for doi:10.1016/j.bmcl.2013.02.084 (Astrazeneca, 2013)
